Test results as given in ChEMBL document CHEMBL4229345, “Inhibition of trypanosome alternative oxidase without its N-terminal mitochondrial targeting signal (ΔMTS-TAO) by cationic and non-cationic 4-hydroxybenzoate and 4-alkoxybenzaldehyde derivatives active against T. brucei and T. congolense” (Eur J Med Chem, 2018).
≈ marks a conversion by molar mass, not a printed value. Calls of active or inactive are those of the source. The rule behind the calls is not given here.

Columns and labels:
[1] = Inhibition of recombinant N-terminal His6 tagged SUMO-fused Trypanosoma brucei brucei TC221 TAO MTS deletion mutant expressed in Escherichia coli FN102 preincubated for 2 mins followed by ubiquinol-1 addition measured over 2 mins by double beam-dual wavelength UV-spectrophotometry
[2] = tested on: Trypanosoma brucei brucei; experiment: Anti-parasitic activity against bloodstream trypomastigote stage of wild-type Trypanosoma brucei brucei Lister 427 after 48 hrs in presence of 5 mM glycerol by resazurin-based assay; format: functional, organism-based; settings: Lister 427, 48 h
[3] = tested on: Trypanosoma brucei brucei; experiment: Anti-parasitic activity against bloodstream trypomastigote stage of wild-type Trypanosoma brucei brucei Lister 427; format: functional
[4] = Non-competitive inhibition of Trypanosoma brucei brucei TC221 TAO expressed in Escherichia coli FN102 assessed as reduction in ubiquinoldependent oxygen consumption by spectrophotometry
[5] = Competitive inhibition of recombinant N-terminal His6 tagged SUMO-fused Trypanosoma brucei brucei TC221 TAO MTS deletion mutant expressed in Escherichia coli FN102 preincubated for 2 mins followed by ubiquinol-1 addition measured over 2 mins by Lineweaver-Burk plot analysis
[6] = tested on: Trypanosoma brucei brucei; experiment: Anti-parasitic activity against bloodstream trypomastigote stage of wild-type Trypanosoma brucei brucei Lister 427 after 48 hrs by resazurin-based assay; format: functional, organism-based; settings: Lister 427, 48 h
Trypanosoma congolense [7] = experiment: Anti-parasitic activity against bloodstream form of Trypanosoma congolense IL3000 after 48 hrs by resazurin-based assay; format: functional, organism-based; settings: IL3000, 48 h
[8] = tested on: Trypanosoma brucei brucei; experiment: Resistance factor, ratio of EC50 for bloodstream trypomastigote stage of wild-type Trypanosoma brucei brucei Lister 427 in presence of 5 mM glycerol to EC50 for bloodstream trypomastigote stage of wild-type Trypanosoma brucei brucei Lister 427; format: functional
[9] = Cytotoxicity against HFF cells assessed as reduction in cell viability after 30 hrs by resazurin-based assay; settings: human
[10] = tested on: Trypanosoma brucei brucei; experiment: Anti-parasitic activity against bloodstream trypomastigote stage of Trypanosoma brucei brucei with AQP2/3-dd knock out after 48 hrs by resazurin-based assay; format: functional, organism-based
[11] = tested on: Trypanosoma brucei brucei; experiment: Anti-parasitic activity against bloodstream trypomastigote stage of Trypanosoma brucei brucei with AQP triple knock out after 48 hrs by resazurin-based assay; format: functional, organism-based
Trypanosoma brucei = experiment: Anti-parasitic activity against bloodstream trypomastigote stage of pentamidine/diminazene/melaminophenyl arsenical resistant Trypanosoma brucei B48 after 48 hrs by resazurin-based assay; format: functional, organism-based; settings: B48, 48 h
[12] = tested on: Trypanosoma brucei brucei; experiment: Resistance factor, ratio of EC50 for bloodstream trypomastigote stage of Trypanosoma brucei brucei with AQP2/3-dd knock out to EC50 for bloodstream trypomastigote stage of wild-type Trypanosoma brucei brucei Lister 427; format: functional
[13] = tested on: Trypanosoma brucei brucei; experiment: Resistance factor, ratio of EC50 for bloodstream trypomastigote stage of Trypanosoma brucei brucei AQP triple knock out to EC50 for bloodstream trypomastigote stage of wild-type Trypanosoma brucei brucei Lister 427; format: functional
[14] = Resistance factor, ratio of EC50 for bloodstream trypomastigote stage of pentamidine/diminazene/melaminophenyl arsenical resistant Trypanosoma brucei B48 to EC50 for bloodstream trypomastigote stage of wild-type Trypanosoma brucei brucei Lister 427; format: functional
[15] = Selectivity index, ratio of CC50 for HFF cells to EC50 for bloodstream trypomastigote stage of wild-type Trypanosoma brucei brucei Lister 427; format: toxicity; settings: human, read-out: Ratio CC50/EC50
[16] = Selectivity index, ratio of CC50 for HFF cells to EC50 for bloodstream form of Trypanosoma congolense IL3000; format: toxicity; settings: human, read-out: Ratio CC50/EC50
[17] = tested on: Trypanosoma brucei brucei; experiment: Potency index, ratio of diminazene EC50 to test compound EC50 for anti-parasitic activity against bloodstream trypomastigote stage of wild-type Trypanosoma brucei brucei Lister 427; format: functional
Trypanosoma congolense [18] = experiment: Potency index, ratio of diminazene EC50 to test compound EC50 for anti-parasitic activity against bloodstream form of Trypanosoma congolense IL3000; format: functional
[19] = Drug metabolism in human liver S9 fraction assessed as CYP450 mediated compound hydrolysis by measuring parent compound remaining at 5 uM measured immediately in presence of NADPH by RP-HPLC analysis; format: ADME, subcellular; settings: read-out: Stability
[20] = Drug metabolism in human liver S9 fraction assessed as CYP450 mediated compound hydrolysis by measuring parent compound remaining at 5 uM measured after 15 mins in presence of NADPH by RP-HPLC analysis; format: ADME, subcellular; settings: read-out: Stability
[21] = Drug metabolism in human liver S9 fraction assessed as CYP450 mediated compound hydrolysis by measuring parent compound remaining at 5 uM measured after 30 mins in presence of NADPH by RP-HPLC analysis; format: ADME, subcellular; settings: read-out: Stability
[22] = Drug metabolism in human liver S9 fraction assessed as CYP450 mediated compound hydrolysis by measuring parent compound remaining at 5 uM measured after 60 mins in presence of NADPH by RP-HPLC analysis; format: ADME, subcellular; settings: read-out: Stability
[23] = Drug metabolism in human liver S9 fraction assessed as CYP450 mediated compound hydrolysis by measuring parent compound remaining at 5 uM measured after 120 mins in presence of NADPH by RP-HPLC analysis; format: ADME, subcellular; settings: read-out: Stability
[24] = Drug metabolism in human liver microsomes assessed as CYP450 mediated compound hydrolysis by measuring parent compound remaining at 5 uM measured immediately in presence of NADPH by RP-HPLC analysis; format: ADME; settings: read-out: Stability
[25] = Drug metabolism in human liver microsomes assessed as CYP450 mediated compound hydrolysis by measuring parent compound remaining at 5 uM measured after 15 mins in presence of NADPH by RP-HPLC analysis; format: ADME; settings: read-out: Stability
[26] = Drug metabolism in human liver microsomes assessed as CYP450 mediated compound hydrolysis by measuring parent compound remaining at 5 uM measured after 30 mins in presence of NADPH by RP-HPLC analysis; format: ADME; settings: read-out: Stability
[27] = Drug metabolism in human liver microsomes assessed as CYP450 mediated compound hydrolysis by measuring parent compound remaining at 5 uM measured after 60 mins in presence of NADPH by RP-HPLC analysis; format: ADME; settings: read-out: Stability
[28] = Drug metabolism in human liver microsomes assessed as CYP450 mediated compound hydrolysis by measuring parent compound remaining at 5 uM measured after 120 mins in presence of NADPH by RP-HPLC analysis; format: ADME; settings: read-out: Stability
[29] = Drug metabolism in human liver S9 fraction assessed as UGT mediated compound hydrolysis by measuring parent compound remaining at 5 uM measured immediately in presence of UDPGA by RP-HPLC analysis; format: ADME, subcellular; settings: read-out: Stability
[30] = Drug metabolism in human liver S9 fraction assessed as UGT mediated compound hydrolysis by measuring parent compound remaining at 5 uM measured after 15 mins in presence of UDPGA by RP-HPLC analysis; format: ADME, subcellular; settings: read-out: Stability
[31] = Drug metabolism in human liver S9 fraction assessed as UGT mediated compound hydrolysis by measuring parent compound remaining at 5 uM measured after 30 mins in presence of UDPGA by RP-HPLC analysis; format: ADME, subcellular; settings: read-out: Stability
[32] = Drug metabolism in human liver S9 fraction assessed as UGT mediated compound hydrolysis by measuring parent compound remaining at 5 uM measured after 60 mins in presence of UDPGA by RP-HPLC analysis; format: ADME, subcellular; settings: read-out: Stability
[33] = Drug metabolism in human liver S9 fraction assessed as UGT mediated compound hydrolysis by measuring parent compound remaining at 5 uM measured after 120 mins in presence of UDPGA by RP-HPLC analysis; format: ADME, subcellular; settings: read-out: Stability
[34] = Stability in mouse serum assessed as compound hydrolysis after 24 hrs by LC/MS analysis; format: ADME, cell-free; settings: read-out: Drug degradation
[35] = Stability in horse serum assessed as compound hydrolysis after 24 hrs by LC/MS analysis; format: ADME, cell-free, Equus caballus; settings: read-out: Drug degradation
[36] = tested on: Trypanosoma brucei rhodesiense; experiment: In vivo anti-parasitic activity against luciferase tagged Trypanosoma brucei rhodesiense STIB900 infected in NMRI mouse assessed as reduction in parasitemia at 10 mg/kg, ip for 4 consecutive days starting at day 3 post infection and measured after last treatment on day 7 (reference value: 0%); format: functional; parameters: scale not given: the % may be the effect or the level left
[37] = tested on: Trypanosoma brucei rhodesiense; experiment: In vivo anti-parasitic activity against luciferase tagged Trypanosoma brucei rhodesiense STIB900 infected in NMRI mouse assessed as reduction in parasitemia at 10 mg/kg, ip for 4 consecutive days starting at day 3 post infection and measured 3 days hrs after last treatment on day 10 (reference value: 0%); format: functional; parameters: scale not given: the % may be the effect or the level left
[38] = tested on: Trypanosoma brucei rhodesiense; experiment: In vivo anti-parasitic activity against luciferase tagged Trypanosoma brucei rhodesiense STIB900 infected in NMRI mouse assessed as cured mouse at 10 mg/kg, ip for 4 consecutive days starting at day 3 post infection; format: functional, organism-based
[39] = Stability in horse serum assessed as compound receovery after 24 hrs by LC/MS analysis; format: ADME, cell-free, Equus caballus; settings: read-out: Drug recovery
[40] = Half life in mouse serum by LC/MS analysis; format: ADME, cell-free
[41] = Stability in mouse serum assessed as compound hydrolysis after 2 hrs by LC/MS analysis; format: ADME, cell-free; settings: read-out: Drug degradation
[42] = Stability in horse serum assessed as compound hydrolysis after 2 hrs by LC/MS analysis; format: ADME, cell-free, Equus caballus; settings: read-out: Drug degradation
[43] = Stability in mouse serum assessed as parent compound remaining after 0.25 to 24 hrs by LC/MS analysis; format: ADME, cell-free
[44] = Protein binding in mouse serum up to 24 hrs by LC/MS analysis; format: ADME, cell-free; settings: read-out: PB (converted)
[45] = Stability in mouse serum assessed as parent compound recovery after 15 mins by LC/MS analysis; format: ADME, cell-free; settings: read-out: Drug recovery

SMILES	IC50 [1] [nM]	EC50 [6] [nM]	EC50 [2] [nM]	EC50 (Trypanosoma congolense [7]) [nM]	Ratio EC50 [8]	CC50 at 30 h [9] [nM]	EC50 [10] [nM]	EC50 [11] [nM]	EC50 (Trypanosoma brucei) [nM]	Ratio EC50 [12]	Ratio EC50 [13]	Ratio EC50 [14]	selectivity ratio [15]	selectivity ratio [16]	Ratio EC50 [17]	Ratio EC50 (Trypanosoma congolense [18])	metabolised at 24 h [34] [%]	also measured
C/C(=C\Cc1c(O)c(Cl)c(C)c(C=O)c1O)CC/C=C(\C)[C@@H]1CC(=O)C(C)(C)O1 [ASCOFURANONE]	2																	MIC [2]: 30 µM; MIC [3]: 250 µM (≈ 105 µg/mL); Ki [4]: 2.38 nM
Cc1cc(O)cc(O)c1C(=O)OCCCCCCCCCCCCCC[P+](c1ccccc1)(c1ccccc1)c1ccccc1.[Br-]	88	1.6	1.4	5	0.92	> 200000	0.8	1.4	1.9	0.51	0.89	1.2	> 125000	> 40000	5 - 40	5 - 40	< 20	Ki [5]: 870 nM; remaining at 0 min, 5 µM [19]: 100%; remaining at 0.25 h, 5 µM [20]: 92.3%; remaining at 0.5 h, 5 µM [21]: 101%; remaining at 1 h, 5 µM [22]: 96.4%; remaining at 2 h, 5 µM [23]: 94.1%; remaining at 0 min, 5 µM [24]: 100%; remaining at 0.25 h, 5 µM [25]: 93.4%; remaining at 0.5 h, 5 µM [26]: 86%; remaining at 1 h, 5 µM [27]: 93.4%; remaining at 2 h, 5 µM [28]: 93.1%; remaining at 0 min, 5 µM [29]: 100%; remaining at 0.25 h, 5 µM [30]: 79.4%; remaining at 0.5 h, 5 µM [31]: 66.9%; remaining at 1 h, 5 µM [32]: 58.2%; remaining at 2 h, 5 µM [33]: 52.6%; metabolised at 24 h [35]: < 30%; Activity [36]: 94.7%; Activity [37]: 27.9%; Activity [38]: inactive
COc1ccc([C@@H]2Sc3ccccc3N(CCN(C)C)C(=O)[C@@H]2OC(C)=O)cc1 [DILTIAZEM]																		remaining at 24 h [39]: 1%
Cc1cc(O)ccc1C(=O)OCCCCCCCCCCCCCC[P+](c1ccccc1)(c1ccccc1)c1ccccc1.[Br-]	81	2.4	3.2	39	1.32	> 200000	2.2	5	2.2	0.92	2	0.9	> 83000	> 5130	5 - 40	5 - 40	> 99	half-life [40]: 1 h; metabolised at 2 h [41]: 70%; metabolised at 2 h [42]: < 20%
O=Cc1ccc(OCCCCCCCCCCCCCC[P+](c2ccccc2)(c2ccccc2)c2ccccc2)cc1O.[Br-]	220	133	67	270	0.51	> 200000	42	53	110	0.32	0.4	0.8	> 1500	> 740				Stability [43]: Stable; fraction unbound at 24 h [44]: 0.1; remaining at 0.25 h [45]: 12%
